The record followed here is patent US7468364B2, “Carbapenem compounds” (Dainippon Sumitomo Pharma Co., Ltd., priority 2003, dated 2008).

The nature of this data set: Oral absorption test in rats. The format is in vivo. Particulars: male SD rats, oral 10 mg value/kg (as active substance). The procedure:
A compound of Example 1 of the present invention and a pivaloyloxymethyl ester derivative of the compound 32, carbapenem in which para-hydroxyphenyl group is directly substituted, which is described in the Journal of Medicinal Chemistry, Vol. 30, p 871-880, 1987 (which is one of the prior arts which are most relevant to the present invention) were orally administered to mice or rats. The concentration of the active substance in serum was measured by bioassay, and absolute bioavailability was compared respectively.
The test sample was prepared in the same manner as in the oral absorption test in mice. […] To thus treated rats were orally administered the test sample (10 mg value/kg (calculated into active substance)). […] The concentration of the active substance in the serum was measured by bioassay in the same manner as in the oral absorption in mice. […]
In regard to the test sample, the value of the concentration of the active substance in serum was plotted to the hours after administration, and calculated the concentration of the active substance-area under hours curve (AUC) or calculated reducing area under hours curve (AUC) from the concentration of the active substance. On the other hand, AUC when the active substance was intravenously administered was calculated as mentioned above. […]
The absolute availability (BA) was calculated based on the above formula.

Consider `C[C@@H](O)[C@H]1C(=O)N2C(C(=O)OCOC(=O)C(C)(C)C)=C(c3ccc(O)cc3)C[C@H]12` [comparative compound], for which the oral absorbability result is “did not show oral absorbability”.
